Experimental data as given in patent US20060276534A1, “Methods of decreasing calcification” (Amgen Inc., priority 2005, published 2006).

Key:
[1] = test system: adenine-induced CKD rats; assay: Parathyroid hyperplasia (PCNA immunohistochemistry, parathyroid weight) in adenine-induced CKD model; assay type: in vivo, rat; settings: adenine diet rats, vs vehicle
From the text: (§1) Male Sprague-Dawley rats (Charles River Laboratories) weighing 300-350 grams were used in these studies. All animals received standard lab chow (Harlan Teklad, Madison, Wis.) prior to the start of the studies. The standard lab chow was changed to a standard rodent lab chow that contained 0.75% adenine. Animals received food and water ad libitum. The animal protocol was approved by the Institutional Animal Care and Use Committee of Amgen Inc. (Thousand Oaks, Calif.).
(§2) Animals were fed the adenine containing chow for 21 days, and prior to the start of the adenine diet animals were pre-bleed for baseline measurements of ionized calcium, PTH, BUN and creatinine and phosphorus levels (FIG. 9).
(§3) Prior to placing animals on an adenine diet or administration of Compound B or vehicle baseline determininations of serum P, Ca, BUN, PTH and creatinine were performed. […] For measurement of blood ionized calcium levels, blood was collected from the abdominal aorta under anesthesthia (2% isofluorane in O2), prior to sacrifice, with heparinized capillary tubes and analyzed using a Ciba-Corning 634 ISE Ca^++/pH Analyzer (Ciba-Corning Diagnostics Corp, Medfield, Mass.). […] PTH levels were quantified according to the vendor's instructions using a rat PTH(1-34) immunoradiometric assay kit (Immutopics, San Clemente, CA). […]

[2] = test system: adenine-induced CKD rats; assay: PTH and serum chemistry profile in adenine-induced CKD model with vascular calcification; assay type: in vivo, rat; settings: adenine diet rats, Compound B 3 mg/kg p.o. daily 21 days, vs vehicle
From the text: as §1, §2
Prior to placing animals on an adenine diet or administration of Compound B or vehicle baseline determininations of serum P, Ca, BUN, PTH and creatinine were performed. Blood was removed from the orbital sinus under while the rats were under anesthetisa (2% isoflurane in O2). After the time 0 bleed, animals were placed on the adenine containing chow and were administered Compound B at 3 mg/kg p.o. or vehicle (12% captisol in water) daily for 21 days. At the end of the study (day 21) animals were sacrificed and the aorta and parathyroid glands were removed for histopathological analysis. Blood was removed for blood chemistries and PTH determinations. For measurement of blood ionized calcium levels, blood was collected from the abdominal aorta under anesthesthia (2% isofluorane in O2), prior to sacrifice, with heparinized capillary tubes and analyzed using a Ciba-Corning 634 ISE Ca^++/pH Analyzer (Ciba-Corning Diagnostics Corp, Medfield, Mass.). Separately, blood was collected for PTH, blood urea nitrogen (BUN), creatinine, and serum phosphorus levels into SST (clot activator) brand blood tubes (BD, Franklin Lakes, N.J.) and allowed to clot. Serum was removed and stored at −70° C. until assayed. PTH levels were quantified according to the vendor's instructions using a rat PTH(1-34) immunoradiometric assay kit (Immutopics, San Clemente, CA). BUN, creatinine, and phosphorus levels were determined using a blood chemistry analyzer (Olympus AU 400, Melville, N.Y.).

[3] = test system: adenine-induced CKD rats; assay: Aortic vascular calcification by bone mineral density (PIXImus) in adenine-induced CKD model; assay type: in vivo, rat; settings: adenine diet rats; Compound B 3 mg/kg p.o. daily 21 days, compared to vehicle on the same diet
From the text: as §1
as §3, with “performed. Blood was removed from the orbital sinus under while the rats were under anesthetisa (2% isoflurane in O2).” for “performed.”, “CA). BUN, creatinine, and phosphorus levels were determined using a blood chemistry analyzer (Olympus AU 400, Melville, N.Y.).” for “CA).”

[4] = test system: 5/6 Nx rats; assay: Ca and P content of thoracic aorta in 5/6 Nx rats given paricalcitol and/or Compound B (Example 3); assay type: in vivo, rat
From the text: Wistar rats (200-250g), fed a 0.6% Ca and 1.2% P diet, were 5/6 nephrectomized (5/6 Nx) or sham-operated (sham).

[5] = test system: 5/6 Nx rats; assay: Soft tissue mineralization by Von Kossa staining in 5/6 Nx rats (Example 4); assay type: in vivo, rat; settings: 14 days
From the text: Wistar rats (200-250g), fed a 0.6% Ca and 1.2% P diet, were 5/6 nephrectomized (5/6 Nx).

[6] = test system: 5/6 Nx rats; assay: Serum PTH, ionized Ca, P and creatinine in 5/6 Nx rats given paricalcitol and/or Compound B (Example 3); settings: 14 days
[7] = 5/6 Nx rats, 14 days, compared to vehicle treated 5/6 Nx animals (Compound B also vs sham)
[8] = Compound B administered to paricalcitol treated 5/6 Nx rats, compared to 5/6 Nx rats treated with paricalcitol
[9] = thoracic aorta, 5/6Nx rats, 14 days, paricalcitol 240 ng/kg every 48 hr ip, Compound B 1.5 mg/kg every 48 hr sc
[10] = Compound B 1.5 mg/kg every 48 hr sc to calcitriol-treated 5/6 Nx rats
[11] = 5/6 Nx rats, compared to 5/6 Nx+vehicle
[12] = 5/6Nx rats, paricalcitol 240 ng/kg every 48 hr ip, Compound B 1.5 mg/kg every 48 hr sc
[13] = serum, 5/6Nx rats, paricalcitol 240 ng/kg every 48 hr ip, Compound B 1.5 mg/kg every 48 hr sc

SMILES: COc1ccc(CNC(C)c2ccccc2)cc1-c1ccc(C(F)(F)F)cc1 (stereo not drawn) [Compound B, N-((6-(methyloxy)-4′-(trifluoromethyl)-1,1′-biphenyl-3-yl)methyl)-1-phenylethanamine]
- Number of PCNA-positive cells (parathyroid) ([1]; Compound B 3 mg/kg p.o. daily 3 weeks): significantly (p<0.01) reduced
- Parathyroid weights ([1]; Compound B 3 mg/kg p.o. daily 21 days): significantly decreased
- Serum P levels [2]: no significant (p>0.05) treatment effect
- Serum PTH levels ([2]; p<0.0001): significantly reduced
- Creatinine levels ([2]; p<0.05): decrease
- Total serum calcium ([2]; p=0.0001): significantly reduced
- Serum ionized calcium (iCa) ([2]; p=0.004): significantly reduced
- Blood urea nitrogen (BUN) ([2]; p>0.05): no significant treatment effect
- Reduction aortic bone mineral density [3]: 75%
- Aortic Ca content, change in words [4, 7]: did not significantly change
- Aortic P content, change in words [4, 7]: did not significantly change
- Aortic Ca content, change in words [4, 8]: significantly (p<0.05) reduced
- Aortic P content, change in words [4, 8]: significantly (p<0.05) reduced
- Aortic Ca [4, 9]: 2.6 ± 0.16 mg/g
- Aortic P [4, 9]: 0.33 ± 0.05 mg/g
- Heart mineralization (Von Kossa staining) [5, 10]: reduced
- Kidney mineralization (Von Kossa staining) [5, 10]: reduced
- Lung mineralization (Von Kossa staining) [5, 10]: reduced
- Kidney mineralization (Von Kossa staining) ([5]; Compound B 1.5 mg/kg every 48 hr sc to paricalcitol-treated 5/6 Nx rats): reduced
- Blood ionized calcium, change in words [6, 11]: no changes
- Creatinine, change in words [6, 11]: no changes
- Serum P levels, change in words [6, 11]: no changes
- Serum PTH levels, change in words [6, 11]: significantly (p<0.05) decreased
- Creatinine [6, 12]: 0.98 ± 0.1 mg/dL
- Ionized Ca [6, 12]: 0.93 ± 0.06 mM
- P [6, 13]: 9.5 ± 1.5 mg/dL
- PTH [6, 13]: 45 ± 1.8 pg/mL
